From patent US20220152004A1, “HETEROCYCLYL(PHENYL)METHANOL COMPOUNDS USEFUL IN THE TREATMENT OF HYPERGLYCAEMIA” (ATROGI AB, priority 2019, published 2022)
Structures can show the parent of a compound that is named as a salt.

Legend:
L6-myotubes [1] = assay: Measurement of intracellular cAMP levels in differentiated L6-myotubes; type: cell-based; conditions: for Emax at 10 µM: 0.25 h, agonist final concentration 1×10^−5, 15 min, differentiated cells, Table 1, read-out: Biological example 2 (intracellular cAMP levels, activity compared to that of isoproterenol); for Biological example 4: Table 2, cAMP assay of Biological Example 2, agonist final concentration 1×10^−5
Description: (§1) L6-myoblasts were grown in Dulbecco's Modified Eagle's Medium (DMEM) containing 4.5 g/l glucose supplemented with 10% fetal bovine serum, 2 mM L-Glutamine, 50 U/ml penicillin, 50 μg/ml streptomycin and 10 mM HEPES. Cells were plated at 1×10^5 cells per ml in 24-well plates. After reaching 90% confluence the cells were grown in medium containing 2% FBS for 7 days where upon cells differentiated into myotubes.
Differentiated cells were serum-starved overnight and stimulated with agonist, final concentration 1×10^−5, for 15 min in stimulation buffer (HBSS supplemented with 1% BSA, 5 mM HEPES and 1 mM IBMX, pH 7,4) The medium was then aspirated and to end the reaction 100 μL of 95% EtOH was added to each well of a 24-well plate and cells were kept in −20° C. over night. The EtOH was let to evaporate and 500 μL of lysis buffer (1% BSA, 5 mM HEPES and 0,3% Tween-20, pH 7,4) was added to each well before put in −80° C. for 30 min and then kept in −20° C. Intracellular cAMP levels were detected using an alpha screen cAMP kit (6760635D from Perkin Elmer). The activity for each compound is compared to that of isoproterenol.

L6-myotubes [2] = assay: Glucose uptake (3H-2-deoxy-glucose) in differentiated L6-myotubes; type: cell-based; conditions: agonist final concentration 1×10^−5; for Emax at 10 µM: differentiated L6-myotubes, Table 1, read-out: Biological example 1 (glucose uptake, activity compared to that of isoproterenol); for Biological example 3: Table 2, glucose uptake assay of Biological Example 1
Description: as §1
Differentiated L6-myotubes were serum-starved overnight in medium containing 0,5% fatty-acid free BSA and stimulated with agonist, final concentration 1×10^−5. After 1 h 40 min cells were washed with warm, glucose free medium or PBS and another portion of agonist was added to glucose free medium. After 20 min the cells were exposed to 50 nM ^3H-2-deoxy-glucose for another 10 min before washed in ice cold glucose free medium or PBS and lysed in 0.2 M NaOH for 1 h in 60° C.

Compound | Emax at 10 µM (L6-myotubes [1]) [%] | Emax at 10 µM (L6-myotubes [2]) [%] | Biological example 4 (L6-myotubes [1]) | Biological example 3 (L6-myotubes [2])
CCCC1(CCC)CC[C@H]([C@H](O)c2cccc(F)c2)N1 [Example 27, (R)-((R)-5,5-Dipropylpyrrolidin-2-yl)(3-fluorophenyl)methanol hydrochloride] | < 25 | 50 to 75 | – | –
CC1(C)C[C@@H]([C@@H](O)c2ccccc2F)N1.Cl [Example 34, (S)-((S)-4,4-dimethylazetidin-2-yl)(2-fluorophenyl)methanol hydrochloride] | – | – | − (less than 25%) | + (between 50 and 25%)
CC1(C)CCC[C@H]([C@@H](O)c2cccc(F)c2)N1 [Example 2, (S)-((R)-6,6-Dimethylpiperidin-2-yl)(3-fluorophenyl)methanol] | < 25 | < 25 | – | –
CC1(C)CCC[C@H]([C@H](O)c2cccc(O)c2)N1 [Example 3, 3-((R)-((R)-6,6-Dimethylpiperidin-2-yl)(hydroxy)methyl)phenol acetate] | < 25 | 25 to 50 | – | –
CC1(C)CCC[C@H]([C@H](O)c2cccc(Cl)c2)N1 [Example 7, hydrochloride] | < 25 | 25 to 50 | – | –
CC1(C)C[C@@H]([C@@H](O)c2cccc(Cl)c2)N1.O=C(O)/C=C\C(=O)O [Example 48, (S)-(3-chlorophenyl)((S)-4,4-dimethylazetidin-2-yl)methanol maleate] | – | – | − (less than 25%) | + (between 50 and 25%)
CC1(C)CCC[C@@H]([C@@H](O)c2ccccc2F)N1.Cl [Example 42, (S)-((S)-6,6-dimethylpiperidin-2-yl)(2-fluorophenyl)methanol hydrochloride] | – | – | − (less than 25%) | + (between 50 and 25%)
CC1(C)CC[C@@H]([C@@H](O)c2cccc(F)c2)N1 [Example 14, (S)-((S)-5,5-Dimethylpyrrolidin-2-yl)(3-fluorophenyl)methanol hydrochloride] | < 25 | 25 to 50 | – | –
CC1(C)CC[C@H]([C@H](O)c2cccc(F)c2)N1 [Example 11, (R)-((R)-5,5-Dimethylpyrrolidin-2-yl)(3-fluorophenyl)methanol hydrochloride] | < 25 | > 75 | – | –
CC1(C)CCC[C@H]([C@@H](O)c2ccccc2Cl)N1 [Example 6, (S)-(2-Chlorophenyl)((R)-6,6-dimethylpiperidin-2-yl)methanol hydrochloride] | < 25 | > 75 | – | –
CC1(C)CCC[C@@H]([C@H](O)c2ccccc2F)N1.Cl [Example 41, (R)-((S)-6,6-dimethylpiperidin-2-yl)(2-fluorophenyl)methanol hydrochloride] | – | – | + (between 50 and 25%) | +++ (more than 75% of that of isoproterenol)
O[C@@H](c1cccc(F)c1)[C@H]1CCC2(CC2)N1 [Example 30, (S)-(3-Fluorophenyl)((R)-4-azaspiro[2.4]heptan-5-yl)methanol hydrochloride] | < 25 | 25 to 50 | – | –
CC1(C)C[C@H]([C@@H](O)c2cccc(Cl)c2)N1.O=C(O)/C=C\C(=O)O [Example 46, (S)-(3-chlorophenyl)((R)-4,4-dimethylazetidin-2-yl)methanol maleate] | – | – | − (less than 25%) | − (less than 25%)
CC1(C)C[C@@H]([C@@H](O)c2cccc(F)c2)N1.Cl [Example 40, (S)-((S)-4,4-dimethylazetidin-2-yl)(3-fluorophenyl)methanol hydrochloride] | – | – | − (less than 25%) | + (between 50 and 25%)
CC1(C)C[C@H]([C@H](O)c2cccc(Cl)c2)N1.O=C(O)/C=C\C(=O)O [Example 45, (R)-(3-chlorophenyl)((R)-4,4-dimethylazetidin-2-yl)methanol maleate] | – | – | − (less than 25%) | +++ (more than 75% of that of isoproterenol)
CC1(C)CC[C@H]([C@@H](O)c2cc(F)c(N)c(F)c2)N1.Cl [Example 51, (S)-(4-Amino-3,5-difluorophenyl)((R)-5,5-dimethylpyrrolidin-2-yl)methanol hydrochloride] | – | – | – | +++ (more than 75% of that of isoproterenol)
CC1(C)CC[C@H]([C@H](O)c2cccc(O)c2)N1 [Example 15, (R)-((R)-5,5-Dimethylpyrrolidin-2-yl)(hydroxy)methyl)phenol acetate] | < 25 | > 75 | – | –

Compound | Emax at 10 µM (L6-myotubes [1]) [%] | Emax at 10 µM (L6-myotubes [2]) [%] | Biological example 4 (L6-myotubes [1]) | Biological example 3 (L6-myotubes [2])
CC1(C)CCC[C@@H]([C@@H](O)c2cccc(F)c2)N1.Cl [Example 43, (S)-((S)-6,6-dimethylpiperidin-2-yl)(3-fluorophenyl)methanol hydrochloride] | – | – | − (less than 25%) | + (between 50 and 25%)
CC1(C)CCC[C@@H]([C@H](O)c2cccc(F)c2)N1.Cl [Example 44, (R)-((S)-6,6-dimethylpiperidin-2-yl)(3-fluorophenyl)methanol hydrochloride] | – | – | − (less than 25%) | ++ (between 75 and 50%)
CC1(C)CC[C@H]([C@@H](O)c2cccc(O)c2)N1 [Example 16, (S)-((R)-5,5-Dimethylpyrrolidin-2-yl)(hydroxy)methyl)phenol acetate] | < 25 | 50 to 75 | – | –
CC1(C)CC[C@H]([C@@H](O)c2cccc(N)c2F)N1.Cl [Example 50, (S)-(3-amino-2-fluorophenyl)((R)-5,5-dimethylpyrrolidin-2-yl)methanol hydrochloride] | – | – | − (less than 25%) | + (between 50 and 25%)
CC1(C)CC[C@H]([C@H](O)c2ccccc2Cl)N1 [Example 23, (R)-(2-Chlorophenyl)((R)-5,5-dimethylpyrrolidin-2-yl)methanol hydrochloride] | < 25 | > 75 | – | –
CCCC1(CCC)CC[C@H]([C@@H](O)c2cccc(F)c2)N1 [Example 28, (S)-((R)-5,5-Dipropylpyrrolidin-2-yl)(3-fluorophenyl)methanol hydrochloride] | < 25 | < 25 | – | –
CC1(C)C[C@H]([C@@H](O)c2ccccc2F)N1.Cl [Example 36, (S)-((R)-4,4-dimethylazetidin-2-yl)(2-fluorophenyl)methanol hydrochloride] | – | – | − (less than 25%) | + (between 50 and 25%)
CC1(C)CCC[C@H]([C@@H](O)c2cccc(O)c2)N1 [Example 4, 3-((S)-((R)-6,6-Dimethylpiperidin-2-yl)(hydroxy)methyl)phenol acetate] | < 25 | 25 to 50 | – | –
CC1(C)C[C@@H]([C@H](O)c2ccccc2F)N1.Cl [Example 37, (R)-((S)-4,4-dimethylazetidin-2-yl)(2-fluorophenyl)methanol hydrochloride] | – | – | − (less than 25%) | − (less than 25%)
CC1(C)CC[C@@H]([C@H](O)c2cccc(O)c2)N1 [Example 17] | < 25 | 25 to 50 | – | –
CC1(C)CC[C@H]([C@@H](O)c2cccc(F)c2)N1 [Example 12, (S)-((R)-5,5-Dimethylpyrrolidin-2-yl)(3-fluorophenyl)methanol hydrochloride] | < 25 | 25 to 50 | – | –
CC1(C)CCC[C@H]([C@H](O)c2ccccc2Cl)N1 [Example 5, (R)-(2-Chlorophenyl)((R)-6,6-dimethylpiperidin-2-yl)methanol hydrochloride] | < 25 | 25 to 50 | – | –
O[C@H](c1cccc(F)c1)[C@H]1CCC2(CC2)N1 [Example 29, (R)-(3-Fluorophenyl)((R)-4-azaspiro[2.4]heptan-5-yl)methanol hydrochloride] | < 25 | 50 to 75 | – | –
O[C@@H](c1cccc(F)c1)[C@H]1CCC2(CCCC2)N1 [Example 32, (S)-(3-Fluorophenyl)((R)-1-azaspiro[4.4]nonan-2-yl)methanol maleate] | < 25 | < 25 | – | –
O[C@H](c1cccc(F)c1)[C@H]1CCC2(CCCC2)N1 [Example 31, (R)-(3-Fluorophenyl)((R)-1-azaspiro[4.4]nonan-2-yl)methanol maleate] | 25 to 50 | 50 to 75 | – | –
CC1(C)CC[C@H]([C@@H](O)c2ccccc2F)N1 [Example 20, (S)-((R)-5,5-Dimethylpyrrolidin-2-yl)(2-fluorophenyl)methanol hydrochloride] | < 25 | 25 to 50 | – | –
